Laboratory results published in patent US20250255888A1, “Use of Baby Aspirin with Diphenhydramine or other Sleep Aids” (priority 2024, published 2025).
Where a name gives a salt, the structure may show the parent alone.

Assay: Self-reported use as a sleep aid at night: sleep and morning aftereffects (applicant and two friends)
Type: in vivo
Details: patent applicant, taken for sleep, morning after; worse with less than seven hours of sleep
Source text: They further recommended same to two of their close friends who had complained of same aftereffects of Benadryl.
When aspirin was used with other sleep aids that contain diphenhydramine as an active ingredient, similar result was obtained.

CN(C)CCOC(c1ccccc1)c1ccccc1 [Benadryl, diphenhydramine HCL]
aftereffects in the morning (poor sleep quality, lingering drowsiness, difficulty concentrating): would experience some of the aftereffects of Benadryl such as poor sleep quality, lingering drowsiness or difficulty concentrating
